Experimental data: patent US11034735B2, “Hybrid peptide, set of hybrid peptides, composition, uses of the hybrid peptide, method for inducing an immune response and kits” (priority 2017, dated 2021)

Tests used:
serum of BALB/c mice = experiment: Dot-ELISA, synthetic peptides with serum of immunized BALB/c mice; format: in vivo; set-up: key to Peptide Reactivity, Mice serum inoculated with isolated peptides 1 / Peptide Reactivity, Mice serum inoculated with isolated peptides 2 / Peptide Reactivity, Mice serum inoculated with isolated peptides 3 / Peptide Reactivity, Mice serum inoculated with pool / Peptide Reactivity, Mice serum inoculated with Saline (Negative Control) / Reaction with pool of peptides, Mouse 1 serum / Reaction with pool of peptides, Mouse 2 serum / Reaction with pool of peptides, Mouse 3 serum: — = Did not react; X = Reacted; conditions: for Peptide Reactivity, Mice serum inoculated with pool / Peptide Reactivity, Mice serum inoculated with isolated peptides 1 / Peptide Reactivity, Mice serum inoculated with isolated peptides 2 / Peptide Reactivity, Mice serum inoculated with isolated peptides 3 / Peptide Reactivity, Mice serum inoculated with Saline (Negative Control) / Reaction with pool of peptides, Mouse 1 serum / Reaction with pool of peptides, Mouse 2 serum / Reaction with pool of peptides, Mouse 3 serum: Dot-ELISA; for Peptide Reactivity, Mice serum inoculated with pool: mice inoculated with pool of all 8 hybrid peptides; for Peptide Reactivity, Mice serum inoculated with isolated peptides 1: serum of mouse 1 inoculated with the same isolated peptide; for Peptide Reactivity, Mice serum inoculated with isolated peptides 1 / Peptide Reactivity, Mice serum inoculated with isolated peptides 2 / Peptide Reactivity, Mice serum inoculated with isolated peptides 3: serum 1:25; for Peptide Reactivity, Mice serum inoculated with isolated peptides 2: serum of mouse 2 inoculated with the same isolated peptide; for Peptide Reactivity, Mice serum inoculated with isolated peptides 3: serum of mouse 3 inoculated with the same isolated peptide; for Peptide Reactivity, Mice serum inoculated with Saline (Negative Control): serum of saline-inoculated mice; for Reaction with pool of peptides, Mouse 1 serum / Reaction with pool of peptides, Mouse 2 serum / Reaction with pool of peptides, Mouse 3 serum: pool of peptides as antigen; for Reaction with pool of peptides, Mouse 1 serum: serum of mouse 1 inoculated with the labelled peptide; for Reaction with pool of peptides, Mouse 2 serum: serum of mouse 2 inoculated with the labelled peptide; for Reaction with pool of peptides, Mouse 3 serum: serum of mouse 3 inoculated with the labelled peptide
Procedure: (§1) The immunogenicity of each peptide was checked immunizing BALB/c mice, approximately six weeks old, with […] of protein (Machado et al., 1994). The mice were divided into groups of three animals each. The groups were: P28, P41, P42, P44, P50, P51, P53, P54, Pool (mice inoculated with a pool of peptides, in the case with all 8 hybrid peptides) and negative control group. For inoculations, the peptides were emulsified in Freund's complete adjuvant (Sigma) and inoculated intramuscularly in the quadriceps. Two further immunizations, on the 14th and 28th day after inoculation, were performed using incomplete Freund's adjuvant (Sigma). Each inoculation was carried out using 10 μg/mL of each peptide. Negative control mice were inoculated with sterile saline in place of the peptides and also emulsified in adjuvant. Blood samples were collected by intracardiac puncture on the 10th day after the last immunization and the sera obtained were stored at −20° C. until evaluated by Dot-ELISA and Western-blotting assays.
(§2) Synthetic peptides were used as antigen in the Dot-ELISA technique to verify their ability to react with specific antibodies present in the serum of BALB/c mice, as well as in calf serum, all immunized. The technique was performed as described by Machado et al. (1994), with minor modifications. Briefly, small nitrocellulose discs were cut using a paper punch and each disc arranged in a flat bottom 24-well culture plate well. 4 μg/mL of each synthetic peptide alone, as well as the peptide pool, were deposited on each disc. The discs were dried at room temperature and then blocked for 12 hours at room temperature with […] TBS buffer (0.1 M Tris, 0.1 M NaCl and 0.5% Tween 20; TBS-Tween 20), plus 5% skim milk powder. Test sera were diluted 1:25 (mice and calf) in TBS-Tween 20 containing 5% skim milk powder and incubated for 120 minutes at room temperature and under constant stirring. Then the discs were subjected to two washes with TBS-Tween 20 plus 5% skim milk powder and one wash with TBS-Tween 20 (5 min interval between each wash). To each mouse serum disc was added the alkaline phosphate-coupled anti-mouse conjugate (anti-mouse IgG goat IgG, Sigma A-3562) diluted 1:30,000 in TBS-Tween 20 plus 5% of skim milk powder. To calf serum-containing discs, it was added alkaline phosphate-coupled anti-bovine conjugate (anti-cattle IgG rabbit IgG, Sigma A-0705) diluted 1:30,000 in TBS-Tween 20, plus 5% skim milk powder. After one hour incubation with the appropriate conjugates, washes were followed as in the previous step.

calf serum = experiment: Dot-ELISA, synthetic peptides with serum of calf immunized with peptide pool; format: in vivo; set-up: key to Peptide Reactivity, Calf serum inoculated with pool: — = Did not react; X = Reacted; conditions: Dot-ELISA; peptide as antigen; calf inoculated with pool SEQ ID NO: 20, 21, 23, 25, 26
Text: The immunogenicity of the synthetic peptides was verified by immunizing a previously tested calf with negative results for Anaplasma marginale, Babesia bovis and Babesia bigemina by serology and PCR. For inoculations, a peptide pool (SEQ ID NO: 20, SEQ ID NO: 21, SEQ ID NO: 23, SEQ ID NO: 25 and SEQ ID NO: 26) was emulsified in Freund's complete adjuvant (Sigma) and, inoculated intramuscularly in the quadriceps. Two further immunizations, on the 14th and 28th day after inoculation, were performed using incomplete Freund's adjuvant (Sigma). Each inoculation was done using 100 μg/mL of each peptide. Blood samples were collected by jugular puncture on the 10th day after the last immunization and the sera obtained were stored at −20° C. until evaluated by Dot-ELISA and Western-blotting assays.
as §2

A. marginale antigen = experiment: Indirect immunofluorescence reaction, sera of inoculated mice; format: in vivo; conditions: serum 1:25
Procedure: as §1
The prepared A. marginale antigen-containing blood smear slides were removed from the freezer and thawed at room temperature. […] After drying the slides, they were coverslipped using a buffered glycerine at a 9:1 ratio of glycerine/0.5 M carbonate-bicarbonate buffer pH 9.6 and then observed under a fluorescence microscope (Olympus, BX-FLA).

mouse serum = experiment: Western blotting, synthetic peptides with serum of inoculated mice; conditions: in vivo
Procedure: as §1
Samples of synthetic peptides were analyzed by Western blotting. To this end, initially, the samples were submitted to polyacrylamide gel electrophoresis under denaturing conditions, according to the technique recommended by Laemmli (1970). Based on the sample volume 2× concentrated sample buffer (250 mM Tris-HCl pH 6.8, 40% glycerol, 8% SDS, 20% β-mercaptoethanol and 0.008% bromophenol blue) was added. The samples were homogenized, incubated for 5 minutes at 100° C. and applied to the gel. The separation gel was prepared at a concentration of 12% polyacrylamide in buffer (1.875 M Tris, pH 8.8 and 1% SDS) and 5% polyacrylamide for buffer packaging gel (1.875 M Tris, pH 6.8 and 0.5% SDS). Electrophoresis was performed in Tris-Glycine Running Buffer (50 mM Tris, pH 8.6, 1.92 M Glycine and 1% SDS) at 100 V for up to 3 hours and 30 minutes at 0° C. in the Mini-Protean II system (Bio-Rad).
Synthetic peptides processed on the polyacrylamide gel (SDS-PAGE) were transferred to the nitrocellulose membrane for analysis by Wester blot (TOWBIN et al., 1979). The nitrocellulose membrane (Merck) was previously incubated in ice cold transfer buffer (0.58% Tris Base pH 8.3, 20% methanol and 0.29% glycine). For this, the membrane was placed in the “Mini Trans-Blot” (Bio-Rad) electrotransfer system containing the same buffer and the transfer was performed at 100 V for 90 minutes. The membrane was incubated in TBS-Tween (10 mM Tris-HCl pH 7.5; 150 mM NaCl, 0.05% Tween-20) plus 5% skim milk powder for 12 hours at 4° C. under low agitation, for saturation of non-specific binding sites. The membrane was then incubated with each serum from each mouse alone or incubated with calf serum for 2 hours at room temperature under slow stirring. […]

Sequence | Peptide Reactivity, Mice serum inoculated with pool (serum of BALB/c mice; peptide as antigen) | Peptide Reactivity, Mice serum inoculated with isolated peptides 1 (serum of BALB/c mice; peptide as antigen) | Peptide Reactivity, Mice serum inoculated with isolated peptides 2 (serum of BALB/c mice; peptide as antigen) | Peptide Reactivity, Mice serum inoculated with isolated peptides 3 (serum of BALB/c mice; peptide as antigen) | Peptide Reactivity, Mice serum inoculated with Saline (Negative Control) (serum of BALB/c mice; peptide as antigen) | Reaction with pool of peptides, Mouse 1 serum (serum of BALB/c mice) | Reaction with pool of peptides, Mouse 2 serum (serum of BALB/c mice) | Reaction with pool of peptides, Mouse 3 serum (serum of BALB/c mice) | Peptide Reactivity, Calf serum inoculated with pool (calf serum) | Indirect immunofluorescence reaction for A. marginale, inoculated mice (A. marginale antigen) | Dot-ELISA reaction of sera from mice inoculated with hybrid peptides alone (serum of BALB/c mice; peptide as antigen) | Western blotting reaction of serum of mice inoculated with synthetic peptide (mouse serum)
GASTDDAAAAAKIVAMAYGRGGGGTIVPVKTFDDGALTYFQFYDNNKVIP (Synthetic hybrid peptide) [P50] | — | — | — | — | — | — | — | — | — | positive |  | 
LAESTEGNLEEVWILGKGGGGDELSKKVCGKGTTSGSTNQCG (Synthetic hybrid peptide) [P42] | — | X | — | — | — | — | — | — | — | positive | reacted | reacted
